# Results reported in patent US6585953B2, “Synthesis of 17F labeled fluoroalkanes” (Wisconsin Alumni Research Foundation, priority 2000, dated 2003).
# Assays:
# [1] = Clearance and distribution of inhaled tracer in test subjects; format: in vivo
# Text: Positron emitting ^17F (Eβ^+(max)=1.74 MeV; t½≈64 seconds) has an ideal half life for probing such diverse processes as gray matter cerebral activity or gas-phase reactions on an industrial scale. Because of the very short half life of ^17F, tracers labeled with this isotope such as ^17F labeled fluoromethane provide very short half life cerebral blood flow agents that have important application in PET studies of seizure and other transient brain phenomena. The shorter half life of ^17F with respect to ^15O permits repeat images to be obtained twice as fast with ^17F labeled tracers as compared to ^15O labeled tracers such as water which is presently in wide use as a tracer as described above. The ability to scan twice as fast using ^17F labeled tracers allows more data to be collected in the same amount of time and should allow more test subjects to be evaluated using instruments that are currently in high demand. Additionally, ^17F labeled tracers show improved signal to noise level ratios over ^15O labeled tracers providing increased sensitivity. ^15O tracers such as ^15O labeled water are usually administered in a manner that is more invasive than are tracers such as ^17F labeled fluoromethane. For example, ^15O labeled tracers are usually administered by injection and arterial measurements are then made from an arterial cannulation. On the other hand, ^17F labeled tracers such as fluoromethane may be administered by having a test subject inhale the tracer, and arterial measurements can be made from exhalations.
# FIG. 5 is a gas chromatograph (Porpak Q column; He carrier gas; thermal conductivity detector, electrochemical detector, and positron coincidence radiation detector) showing the radiochemical purity of ^17F labeled fluoromethane produced by the present invention. The radiochemical purity of the ^17F labeled fluoromethane was determined to be 91 percent with only ^17F labeled CF4 from the target as a radiochemical impurity. […] Thus, the presence of CF4 only impacts the dosimetry to the lungs and trachea.
# [2] = cited from earlier work
smiles,measurement,setting,value
C[17F] [^17F labeled fluoromethane],clearance,[1]; by exhalation,rapidly cleared by exhalation
same,biological half life,[1]; in vivo,quite short
FC(F)(F)F [CF4],distribution into blood when inhaled,"[1]; inhaled as tracer impurity, only impacts dosimetry to lungs and trachea",stays out of the blood
[15OH2] [^15O labeled water],permeability surface product,[2]; at high flows the signal is reduced,relatively low
same,clearance from test subjects,[2]; usually administered by injection,slow to clear
